From BindingDB's records for doi:10.1016/0024-3205(91)90562-p (Technion-Israel Institute of Technology, 1991)
“And” between values parts separate entries of the source, which are not always exact repeats. Identical values can stand only once.

Tests used:
[1] = molecular target: Gamma-aminobutyric acid receptor subunit alpha-1 (Rattus norvegicus, UniProt P62813)
[2] = molecular target: T1, Gamma-aminobutyric acid receptor subunit alpha-1 (Homo sapiens, UniProt P14867)
T1 sequence (P14867 whole entry): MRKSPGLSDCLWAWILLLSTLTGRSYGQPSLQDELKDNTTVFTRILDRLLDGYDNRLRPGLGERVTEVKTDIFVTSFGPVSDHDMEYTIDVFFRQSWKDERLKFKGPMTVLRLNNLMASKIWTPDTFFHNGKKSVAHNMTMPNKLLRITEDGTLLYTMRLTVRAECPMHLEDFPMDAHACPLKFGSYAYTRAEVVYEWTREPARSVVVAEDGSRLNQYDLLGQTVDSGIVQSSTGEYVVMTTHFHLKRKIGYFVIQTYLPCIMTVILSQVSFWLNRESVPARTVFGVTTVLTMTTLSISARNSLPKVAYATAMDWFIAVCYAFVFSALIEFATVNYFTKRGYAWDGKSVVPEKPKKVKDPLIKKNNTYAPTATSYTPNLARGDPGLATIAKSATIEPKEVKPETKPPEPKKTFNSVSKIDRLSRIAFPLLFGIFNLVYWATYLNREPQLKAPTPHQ

Sequence of Gamma-aminobutyric acid receptor subunit alpha-1 (Rattus norvegicus, UniProt P62813) (P62813 whole entry): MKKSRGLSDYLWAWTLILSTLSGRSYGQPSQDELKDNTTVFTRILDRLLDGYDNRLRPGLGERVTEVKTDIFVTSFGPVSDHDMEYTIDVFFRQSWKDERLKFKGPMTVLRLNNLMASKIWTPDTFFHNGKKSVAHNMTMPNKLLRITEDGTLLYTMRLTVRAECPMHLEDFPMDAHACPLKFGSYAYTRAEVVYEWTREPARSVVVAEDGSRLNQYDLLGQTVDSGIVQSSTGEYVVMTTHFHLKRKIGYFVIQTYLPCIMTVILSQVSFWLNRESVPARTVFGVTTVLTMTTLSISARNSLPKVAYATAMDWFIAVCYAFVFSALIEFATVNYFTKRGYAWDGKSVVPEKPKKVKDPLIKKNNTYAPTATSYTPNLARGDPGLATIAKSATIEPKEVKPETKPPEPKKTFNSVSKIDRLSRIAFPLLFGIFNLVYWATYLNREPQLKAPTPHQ

SMILES	Ki [1]	Ki [2]
O=C1CN=C(c2ccccc2Cl)c2cc([N+](=O)[O-])ccc2N1 [5-(2-chlorophenyl)-7-nitro-1,3-dihydro-2H-1,4-benzodiazepin-2-one]	> 10000 nM	> 10000 nM
CC[C@@H](C)N(C)C(=O)c1cc2ccccc2c(-c2ccccc2Cl)n1 [PK 11195]	18 nM and 3 nM and 4 nM	8 nM and 5 nM
CN1C(=O)CN=C(c2ccc(Cl)cc2)c2cc(Cl)ccc21 [Ro5-4864]		750 nM
